According to patent US20260355168A1, “COMPOSITIONS AND METHODS FOR TREATING AND DETECTING CANCER” (CASE WESTERN RESERVE UNIVERSITY, priority 2022, published 2026):
Entries after “also recorded” stand apart in the source; their conditions may differ.

Tests used:
U87 cells = assay: U87 scratch wound healing assay; type: cell-based, human; details: 100 μM; in words
Excerpt: FIGS. 11(A-D) illustrate a histogram and images of the results of the U87 scratch wound assays. A. Histogram showing the effects of all soluble wedge pocket-targeting compounds on U87 scratch wound closure. Cell movement into the scratches was quantified from scratch wound widths at the start and end of the assay and normalized to the average movement of cells in the unblinded DMSO control samples. Data is presented as average percentages±s.e.m., and compound bar codes are shown on the x-axis. Most compounds were screened with an n of 2-4. Representative images of scratch wounds treated with DMSO (A) or two priority inhibitors (C and D) are shown.
(§1) Cells were seeded at a density of 2.7×10^4 cells per well into the internal wells of Incuyte1 Imagelock 96-well plates (Essen BioScience Inc., Ann Arbor, MI) and cultured overnight to form monolayers. Monolayers were wounded with an IncuCyte1 96-well Woundmaker Tool per the manufacturer's instructions. The outer wells were filled with PBS to buffer edge effects, and then the wounded monolayers were cultured in 100 μl of fresh media with compounds or DMSO (2×replicates at 100 μM or 1%, respectively) at 37 °C and 5% CO2. Images were captured every 4 hrs. using an Incucyte live cell imaging system equipped with the Scratch Wound Module. Scratch wound widths were calculated, per the manufacturer's instructions, at TO and at endpoint (typically T12 for LN229 and U87 cells and T8 for Gli36), which was taken as the last timepoint before wound closure. The cell migration distance was calculated from scratch widths [(T0Width−TendpointWidth)/2] and normalized to the average distance migrated by the DMSO controls. Values are presented as average percentages±standard errors of the means (s.e.m.). The majority of compounds were screened with an n of two, but the n for priority hits ranges from 2-6.

Gli36 cells = assay: Gli36 glioma sphere formation and growth assay; type: cell-based, human
Experimental: FIGS. 6(A-E) illustrate a histogram and images showing the results of the Gli36 sphere formation and growth assays. Selected inhibitors, activators, and control compounds identified in LN229 and/or U87 scratch wound closure assays were retested at 100 μM in a secondary assay for glioma cell (Gli36) sphere formation and growth. A. Histogram showing the effects of the indicated compounds on Day 1 sphere footprint areas. Footprint areas were measured and normalized to the average footprint area of the unblinded DMSO-treated controls. On day 1, a larger footprint area indicates inhibition of aggregation. B. Histogram showing the effects of the indicated compounds on sphere growth. Changes in sphere footprint areas were calculated and normalized to the average size change of the unblinded vehicle-treated controls. On day 7, a smaller value indicates reduced growth. […] Data is presented as percentages±s.e.m. of 2-4 replicates. Representative images of samples treated with DMSO (C) and two priority inhibitors (D and E) are shown. Relative day 1 footprint areas and day 7 growth measurements are indicated for each example.
(§2) Cells were seeded at a density of 7500 cells per well into the internal wells of 96-well plates coated with 0.75% (wt/vol) PVA as previously described. Compounds were added (2×replicates per treatment) at the indicated final concentrations, and control wells were treated with matching concentrations of DMSO. The external wells of the plates were filled with PBS to buffer against edge effects, and the cells were incubated at 37 °C and 5% CO2 for 7 days. A Leica CTR6500 microscope fitted with an automated stage was used to capture brightfield images on day 1 and day 7, and sphere footprint areas were measured using Image J (v1.52a http://imagej.nih.gov/ij) as previously described. To quantify the effects of the compounds on day 1, the footprint areas of the treated wells were normalized to the average area of the matched DMSO control wells. To quantify the effects of the compounds on sphere growth, the change in the sphere footprint areas was calculated ([…]) and then normalized to the average size change of the matched DMSO samples. All values are presented as average percentages±s.e.m.

PTPμ = PTPμ (Homo sapiens, UniProt P28827); assay: PTPμ-dependent Sf9 aggregation assay; type: cell-based; details: 100 μM; 20 min pretreatment; in words
LN229 cells [1] = assay: LN229 scratch wound healing assay; type: cell-based, human
Excerpt: FIGS. 3(A-D) illustrate a histogram and images of the LN229 scratch wound assays. A. Histogram showing the effects of all soluble wedge-targeted compounds on LN229 scratch wound closure. Cell movement into the scratches was quantified from scratch wound widths at the start and end of the assay and normalized to the average movement of cells in the unblinded DMSO control samples. Data is presented as average percentages±standard error of the means (s.e.m.), and compound bar codes are shown on the x-axis. The majority of compounds were screened with an n=2. Some priority compounds were screened with 3-6 replicates. Representative endpoint images of samples treated with DMSO (B) and two priority inhibitors (C and D) are shown. The relative migration distances for each example are indicated.
as §1
Scratch assays measure the ability of cells to migrate into a wound and close it creating a monolayer.

LN229 cells [2] = assay: LN229 glioma sphere formation and growth assay; type: cell-based, human; details: 100 μM, in words
Experimental: FIGS. 5(A-E) illustrate a histogram and images showing the results of the LN229 sphere formation and growth assays. Selected inhibitors, activators, and control compounds identified in LN229 and/or U87 scratch wound closure assays were retested at 100 μM in a secondary assay for glioma cell (LN229) sphere formation and growth. A. Histogram showing the effects of the indicated compounds on sphere formation. On day 1, sphere footprint areas were determined and normalized to the average footprint area of the unblinded vehicle-treated controls. On day 1, a larger footprint area indicates inhibition of aggregation. B. Histogram showing the effects of the indicated compounds on sphere growth. On day 7, the changes in sphere footprint areas were calculated and normalized to the average size change of the unblinded vehicle-treated controls. On day 7, a smaller value indicates reduced growth. […] Data is presented as percentages±s.e.m. of 2-4 replicates. Representative images of samples treated with DMSO (C) and two priority inhibitors (D and E) are shown. Relative day 1 footprint areas and day 7 growth measurements are indicated for each example.
FIGS. 15(A-D) illustrate a histogram and images of titration of selected compounds on LN229 sphere formation and growth. LN229 cells were plated onto non-adherent surfaces and treated with the indicated compounds at 100, 50, and 25 μM. A. On day 1, sphere footprint areas were determined and normalized to the average footprint area of the unblinded vehicle-treated controls. On day 1, a larger foot-print area indicates inhibition of aggregation. B. On day 7, the changes in sphere footprint areas were calculated and normalized to the average size change of the unblinded vehicle-treated controls. On day 7, a smaller value indicates reduced growth. […] Data is presented as percentages±s.e.m. The initial test at 100 μM and the follow-up at that dose with titration is shown. Each bar is the average of 2 replicates. Representative day 1 (C) and day 7 (D) images of samples treated with two priority inhibitors are shown. Relative day 1 sphere footprint areas and day 7 growth for each example are indicated.
as §2
We tested the effects of twenty-four compounds (11 flagged as inhibitory, 4 as stimulatory, and nine as inert in the initial scratch-wound screen, FIG. 2) on the ability of LN229 cells to mediate cell-cell adhesion and grow in 3D culture on non-adherent surfaces. To quantify sphere formation (FIG. 5A), the footprint areas of aggregates were measured on day 1 and normalized to that of the DMSO control. At this time point, a larger footprint size (>120%) indicates inhibition, i.e., the failure of cells to form a compact aggregate. To quantify sphere growth (FIG. 5B), we calculated the percent changes in sphere footprint areas between day 1 and day 7 and normalized them to that of the DMSO controls.

glioma cells = assay: Glioma cell assays combined (scratch and sphere, several cell lines); type: cell-based, human; details: 100 μM; multiple assays and cell lines
Experimental: FIG. 2 illustrates a schematic of a functional screening approach. Seventy-four PTPμ wedge-targeted compounds and 2 blinded DMSO samples were received from Atomwise and screened at 100 μM in scratch wound healing assays using two glioma cell lines (LN229 and U87). Selected active and control compounds were taken into secondary assays (Gli36 scratch and LN229 and Gli36 sphere formation and growth assays). Inhibitors selected as being active in primary and secondary screens were tested for effects on the survival of LN229 and Sf9 cells, and selected glioma-cell inhibitors and activators were screened for effects on Sf9-PTPμ aggregation, a highly specific test for PTPμ function.
as §1, §2

Sequence of PTPμ (P28827 21-1452): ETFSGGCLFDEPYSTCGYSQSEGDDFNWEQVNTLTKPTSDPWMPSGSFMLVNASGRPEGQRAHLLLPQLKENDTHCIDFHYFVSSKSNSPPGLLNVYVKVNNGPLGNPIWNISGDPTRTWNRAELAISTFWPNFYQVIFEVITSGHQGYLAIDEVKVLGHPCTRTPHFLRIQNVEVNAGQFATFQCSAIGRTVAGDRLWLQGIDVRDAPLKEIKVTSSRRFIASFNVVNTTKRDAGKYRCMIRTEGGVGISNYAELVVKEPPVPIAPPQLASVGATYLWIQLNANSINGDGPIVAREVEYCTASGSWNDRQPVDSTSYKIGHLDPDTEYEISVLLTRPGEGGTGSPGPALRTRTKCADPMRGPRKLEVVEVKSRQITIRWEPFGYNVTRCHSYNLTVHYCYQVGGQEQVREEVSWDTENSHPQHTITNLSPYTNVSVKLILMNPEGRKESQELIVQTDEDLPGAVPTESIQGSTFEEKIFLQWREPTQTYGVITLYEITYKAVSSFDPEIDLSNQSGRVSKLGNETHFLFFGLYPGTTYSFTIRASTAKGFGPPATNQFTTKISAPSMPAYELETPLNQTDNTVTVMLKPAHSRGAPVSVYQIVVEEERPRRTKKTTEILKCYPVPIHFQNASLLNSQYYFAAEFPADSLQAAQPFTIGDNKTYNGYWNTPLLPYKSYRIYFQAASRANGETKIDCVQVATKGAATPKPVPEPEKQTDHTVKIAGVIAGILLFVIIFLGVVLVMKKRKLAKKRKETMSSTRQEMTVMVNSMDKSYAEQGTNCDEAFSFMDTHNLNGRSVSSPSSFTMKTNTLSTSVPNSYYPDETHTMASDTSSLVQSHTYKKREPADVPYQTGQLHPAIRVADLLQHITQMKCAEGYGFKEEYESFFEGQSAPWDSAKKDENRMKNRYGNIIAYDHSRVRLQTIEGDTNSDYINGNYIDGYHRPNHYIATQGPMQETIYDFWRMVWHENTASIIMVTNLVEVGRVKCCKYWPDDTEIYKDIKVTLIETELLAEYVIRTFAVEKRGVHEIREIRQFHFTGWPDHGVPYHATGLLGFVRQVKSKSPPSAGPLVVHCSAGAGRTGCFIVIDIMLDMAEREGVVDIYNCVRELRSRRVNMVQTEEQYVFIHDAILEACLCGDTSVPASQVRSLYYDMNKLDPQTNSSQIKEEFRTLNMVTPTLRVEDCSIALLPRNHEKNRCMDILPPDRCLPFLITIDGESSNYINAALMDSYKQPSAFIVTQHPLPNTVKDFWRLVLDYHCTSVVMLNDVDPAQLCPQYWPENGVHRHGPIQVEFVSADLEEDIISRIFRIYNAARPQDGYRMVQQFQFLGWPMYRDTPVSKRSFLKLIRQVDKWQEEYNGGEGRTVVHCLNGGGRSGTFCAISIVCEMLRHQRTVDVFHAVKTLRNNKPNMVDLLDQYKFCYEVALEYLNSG

COc1ccc(CC(NC(=O)C2CC(NC(=O)CSC)CCN2C(=O)CCC(=O)O)C(N)=O)cc1 (stereo not shown) [Compound 247685114]
Effect on U87 cell migration (scratch wound closure) (U87 cells): did not reach our strict cut-off for an activator; also recorded: weakly stimulatory in U87 and LN229 scratch assays | Effect on Gli36 sphere formation (Gli36 cells; 100 μM, day 1, in words): affected Gli36 spheres; also recorded: accelerate Gli36 sphere condensation and growth; also recorded: weakly stimulatory in U87 and LN229 scratch assays and Gli36 sphere formation and growth assays; also recorded: stimulate Gli36 sphere formation and growth | Effect on Gli36 sphere growth (Gli36 cells; 100 μM, day 7, in words): grew marginally faster than controls; also recorded: modest activator of Gli36 sphere growth; also recorded: weakly stimulatory in U87 and LN229 scratch assays and Gli36 sphere formation and growth assays; also recorded: stimulate Gli36 sphere formation and growth | activity at 100 µM (Gli36 cells; Homo sapiens, GLI36, 24 h, day 1, of the control area, read-out: Average day 1 sphere footprint area, Gli36): 68% | Effect on PTPμ-dependent Sf9 aggregation / adhesion (PTPμ): activate Sf9-PTPμ aggregation; also recorded: activate PTPμ-dependent adhesion; also recorded: considerable increase in aggregate numbers; also recorded: activator of PTPμ-dependent adhesion; also recorded: able to activate PTPμ-mediated aggregation | Effect on LN229 scratch wound closure / migration (LN229 cells [1]; 100 μM, in words): moderately stimulated LN229; also recorded: weakly stimulatory in U87 and LN229 scratch assays | activity at 100 µM (LN229 cells [1]; Homo sapiens, LN-229, normalized to DMSO controls, read-out: LN229 scratch wound closure relative to DMSO controls): ~120% | Effect on LN229 sphere formation (LN229 cells [2]; day 1): did not affect LN229 sphere formation or growth | Effect on LN229 sphere growth (LN229 cells [2]; day 7): did not affect LN229 sphere formation or growth | Effect on glioma cells, overall (glioma cells): only weak, if any, activity in other glioma-cell assays
